Results published in US9796755B2, “Methods of treating depression and other related diseases” (Northwestern University, priority 2009, dated 2017).
Read-outs that look alike come from different tables or passages of the source. Where a SMILES comes first, the peptide text is derived from it.

How the values were obtained:
[1] = CSF concentration of GLYX-13 after IV administration (LC-MS/MS); assay type: in vivo; conditions: male, Sprague Dawley, rat, cerebrospinal fluid (CSF), rats, read-out: Cmax within the CSF compartment
Protocol: Male Sprague Dawley rats (250-300 g) received intravenous injections of GLYX-13 (3-10 mg/kg), briefly anesthetized with isoflurane, and cerebrospinal fluid (CSF) samples drawn and stored at −70° C. until analysis.
CSF samples were precipitated with internal standard Pro-Thr-Pro-Ser-NH2 (SEQ ID NO: 20) in 400 μl of acetonitrile. Supernatant extract was separated by HPLC (LC-20AD, Shimadzu, Japan) using a Synergi 4μ Hydro-RP 8A column (Phenomenex, USA) with mobile phase of 100 mM ammonium formate with 0.1% formic acid for 0 1 minute followed by acetonitrile with 0.1% formic acid and samples were analyzed by LC-MS/MS (API4000, Applied Biosystems, USA) in ESI positive ion mode and the GLYX-13 (199.1 and 216.1) and IS (202.3) daughter ions quantified by multiple reaction monitoring. The lower limit of quantitation for the assay was 26.3 nM GLYX-13.

rats [2] = assay: Porsolt test after microinjection into medial prefrontal cortex or motor cortex; assay type: in vivo, rat
Protocol: To determine whether GLYX-13 acts in an area of the brain that is clinically relevant for depression, GLYX-13 was administered to either the medial prefrontal cortex (MPFC), which is associated with mood and depression, or to the motor cortex (FIG. 4). Mean time spent immobile in the Porsolt test was determined for groups of 10 three-month old male Fisher Brown Norway FI (FBNFI) rats pretreated with a single injection of GLYX-13 (1, 10 ug/side) or a single saline vehicle injection (0.5 ul/1 min) bilaterally into the medial prefrontal cortex or motor cortex (dorsal control) in animals with surgically implanted chronic indwelling cannulae aimed at the MPFC. […] Animals received a single 15 min training swim session one day before dosing.
The Porsolt test adapted for use in rats was performed as above. Animals were placed in a 46 cm tall×20 cm in diameter clear plastic tube filled to 30 cm with tap water (23±1° C.) for 15 min on the first day (habituation) and […] on the subsequent test day.
Bilateral 22-gauge guide cannulae (Plastic Products, USA) were stereotaxically implanted into the infralimbic/prelimbic cortex (+2.7 mm anterior,±1.2 mm lateral, 3.1 mm. ventral to bregma; cannulae angled 12° away from the midline) or dorsal control primary secondary motor cortex. (+2.7 mm anterior,±1.2 mm lateral, 1.0 mm ventral to bregma; cannulae angled 12° away from the midline). Animals were allowed 1 week to recover from surgery before the start of testing. After the completion of behavioral testing, histology was conducted for cannulae tip location. For medial prefrontal cannulae, all tips were located within the infralimbic or prelimbic cortex 2.2-3.2 mm anterior to bregma. For motor cortex cannulae, all tips were located, within the primary or secondary motor cortex 2.2-3.2 mm anterior to bregma.

rats [3] = assay: Porsolt test (Forced Swim Test), systemic dosing; assay type: in vivo, rat; conditions: for effect on floating times in the Porsolt test: Sprague Dawley rats, 20-60 min post dosing
Protocol: For the evaluation of the antidepressant actions of GLYX-13, the effect of GLYX-13 in the Porsolt test of depression was examined in rats. Porsolt testing is the most commonly used test for assessment of depression in animal model, Porsolt testing, also known as Forced Swim Test, is based on a behavioral trait that is sensitive to changes in affective state. During this test, the animal is placed in a tank (18 cm diameter×45 cm height) filled to 30 cm with 22-23° C. water. After placing the animal in the tank, the amount of time for which the rat is immobile when it stops struggling is measured. Porsolt test is based on the fact that antidepressants increase the latency to immobility and decrease the time for which the rat is immobile. […] The interpretation of the Porsolt test is that the antidepressants reinstate active coping mechanisms and decrease the passive immobility evoked by stress.
In order to evaluate the effectiveness of GLYX-13 as antidepressant, three month old FBNF1 rats were separated into two groups of 9 animals. The first group of rats was intravenously injected with 10 mg/kg GLYX-13 and the second group of animals was intravenously injected with PBS vehicle (1 ml/kg) in a blind manner via chronic subdural femoral vein access ports. Both groups of animals were injected 10 to 15 minutes before the start of testing.
For Porsolt testing, animals were given a 15 minute pre-test habituation in the tank to induce learned helplessness on day one. Following this, on the subsequent day, the animals were injected with GLYX-13 or vehicle 10-15 minutes before being placed into the tank for a 5 minute test session. After placing the animals in the tank, the amount of time for which each animal is immobile when it stops struggling (Mean Immobility Time) was measured. Decrease in Mean Immobility Time is a measure of the effectiveness of the antidepressant.
A second experiment was performed in the same manner as Example 1, except that 2-3 month Sprague-Dawley rats were used, and treated with either intravenous (1, 3, 10, 32 mg/kg), subcutaneous (1, 3, 10, 32, 56, 100 mg/kg) injections of GLYX-13 or saline vehicle (1 mg/ml) 15 (i,v.) or 20 (s.c.) min before the start of the final 5 min test session. Ketamine (10 mg/kg i.p.) was given 60 min befbre the start of testing (Garcia et al., (2008) Prog Neuropsychopharmacol Biol Psychiatry, 32, 140-144).
To determine whether the antidepressant effect of GLYX-13 was specific to the sequence of the GLXY-13 peptide, mean time (sec) spent floating in the Porsolt test was determined in groups of 12 three-month old Sprague Dawley rats administered with GLYX-13 (TPPT-NH2 (SEQ ID NO: 13); 3 mg/kg , i.v. tail vein), a scrambled peptide (PTPT-NH3(SEQ ID NO: 19); 3 mg/kg i.v. tail vein), or 0.9% saline vehicle (1 ml/kg, i.v. tail vein). Administration occurred 60 min before the 5 min testing session. Animals received a 15 min training swim session one day before dosing.
To evaluate whether the anti-depressive and anxiolytic effects of GLYX-13 would persist beyond a few hours, rats were tested in the Porsolt test and the Open Field test, described above. Groups of 10-11 three-month old Sprague-Dawley rats were pretreated with GLYX-13 (3 mg/kg i.v.), ketamine (10 mg/kg i.v.) or saline vehicle injection (1 mg/ml i.v. tail vein) 96 hrs before the start of testing. Animals received a single 15 min. training swim session one day before dosing. Animals were tested 96 hrs post dosing in the Porsolt test without any testing during the intervening period. Open field testing was conducted without pre-habituation 1 day after Porsolt testing (i.e. 120 hrs post dosing). Mean(±SEM) time (sec.) spent floating in the Porsolt test, time spent in the center compartment (sec.), and line crosses in the open field test were determined.
The Porsolt test adapted for use in rats was performed as above. […]

rats [4] = assay: Conditioned place preference; assay type: in vivo, rat; conditions: GLYX-13 10 mg/kg IV; ketamine 10 mg/kg IV
Protocol: Animals were trained with GLYX-13 (10 mg/kg, IV), ketamine (10 mg/kg, IV), or saline vehicle (1 mL/kg, IV) utilizing an unbiased two-chamber conditioned place preference apparatus.

SMILES: C[C@@H](O)[C@H](N)C(=O)N1CCC[C@H]1C(=O)N1CCC[C@H]1C(=O)N[C@H](C(N)=O)[C@@H](C)O [GLYX-13, L-threonyl-L-prolyl-L-prolyl-L-threonine amide] (H-TPPT-NH2)
- Cmax ([1]; 3 mg/kg IV): 60 nM
- Cmax ([1]; 10 mg/kg IV): 200 nM
- effect on floating time in the Porsolt test (rats [2]; MPFC injection 1 μg/side, two weeks post dosing, independent group): Reduction in floating time was still apparent
- effect on floating time in the Porsolt test (rats [2]; MPFC injections, 1 and 10 μg/side, 20 min post dosing): reduced floating time
- reduction in floating compared to saline control or GLYX-13 injected into motor cortex (rats [2]; injected into MPFC, FBNF1 rats, 20 min post injection, Mean±SEM): 50±5%
- activity in the Porsolt test (rats [3]; 10 mg/kg SC): active
- effect on floating times in the Porsolt test (rats [3]; 3-10 mg/kg IV): significantly (P<0.05) reduced floating times
- effect on floating times in the Porsolt test (rats [3]; 10-30 mg/kg SC): significantly (P<0.05) reduced floating times
- onset of action (rats [3]; single dose, rats): within minutes
- conditioned place preference, an indicator of abuse potential (rats [4]): did not exhibit either of these effects
